Laboratory results from patent US11793222B2, “Solutions and dispersions of amide compounds” (Firmenich SA, priority 2016, dated 2023).

Legend:
[1] = test system: trained panelists; assay: Evaluation of the umami effect in cold water by trained panelists; type: in vivo; details: cold water (room temperature); 20 ppm compound or 40 ppm solid dispersion (50:50 w/w); 4 trained panelists, blind, after 5 minutes
Experimental: (§1) The solutions were presented to 4 trained panelists on a blind test basis after 5 minutes. They were asked to rate the samples for the umami taste intensity from 0 to 10 (0 denoted no umami effect, and 10 denoted very strong umami taste). The sample according to the invention was rated higher in umami intensity (5.0) than the comparative sample (3.8).
The solutions were presented to 4 trained panelists on a blind test basis after 5 minutes. The sample according to the invention was rated higher in umami intensity (3.4) than the comparative sample (2.5).

[2] = test system: trained panelists; assay: Evaluation of the umami effect in hot chicken bouillon by trained panelists; type: in vivo; details: 20 ppm compound or 40 ppm solid dispersion (50:50 w/w), 4 trained panelists, blind, after 5 minutes
Experimental: as §1
The bouillons were presented to 4 trained panelists on a blind test basis after 5 minutes. The sample according to the invention was rated higher in umami intensity (6.5) than the comparative sample (5.5).

[3] = test system: trained panelists; assay: Evaluation of the umami effect in hot water by trained panelists; type: in vivo; details: 20 ppm compound or 40 ppm solid dispersion (50:50 w/w), 4 trained panelists, blind, after 5 minutes
Experimental: as §1

[4] = Dissolution kinetics in water at 60° C., followed by UV/Vis spectroscopy (absorbance at 310 nm); type: physicochemical
Experimental: The dissolution process was followed on-line by monitoring the UV signal of dissolved (E)-3-(3,4-dimethoxyphenyl)-N-(4-methoxyphenethyl)acrylamide with UV/Vis spectroscopy (measuring absorbance at 310 nm). The dissolution process yielded 50% of the target concentration of 20 ppm of (E)-3-(3,4-dimethoxyphenyl)-N-(4-methoxyphenethyl)acrylamide (10 ppm) after 1.5 minutes, and 95% (19 ppm) after 17 minutes.
20 mg of (E)-3-(3,4-dimethoxyphenyl)-N-(4-methoxyphenethyl)acrylamide were dispersed in 1 L of water at 60° C. The dissolution process yielded 50% of the target concentration of 20 ppm (10 ppm) after 78 minutes (factor 50 slower compared to example 1). 95% (19 ppm) of the target concentration could not be achieved after 6 hours. The concentration of dissolved (E)-3-(3,4-dimethoxyphenyl)-N-(4-methoxyphenethyl)acrylamide after 6 hours was 15 ppm (75% of target).
1.8 g of (E)-3-(3,4-dimethoxyphenyl)-N-(4-methoxyphenethyl)acrylamide and 1.8 g betaine were mixed with 116 g of a mixture of ethanol and water (50:50 w/w). The dispersion was heated to 60° C. until complete dissolution of the solid material. The solution was kept at 60° C., spray dried, and a fine, white powder was obtained. […] The dissolution process yielded 50% of the target concentration of 20 ppm of (E)-3-(3,4-dimethoxyphenyl)-N-(4-methoxyphenethyl)acrylamide (10 ppm) after 2.5 minutes, and 95% (19 ppm) after 29 minutes.

COc1ccc(CCNC(=O)/C=C/c2ccc(OC)c(OC)c2)cc1 [(E)-3-(3,4-dimethoxyphenyl)-N-(4-methoxyphenethyl)acrylamide]
umami intensity rating [1]: 2.5
umami intensity rating [2]: 5.5
umami taste intensity rating from 0 to 10 [3]: 3.8
time until 95% (19 ppm) of the target concentration (could not be achieved) ([4]; 20 mg in 1 L of water at 60° C.): > 6 h
concentration of dissolved compound after 6 hours ([4]; 20 mg in 1 L of water at 60° C., after 6 hours): 15 ppm
dissolved compound after 6 hours as % of target ([4]; 20 mg in 1 L of water at 60° C., after 6 hours, target 20 ppm): 75%
time until dissolution yielded 50% of the target concentration of 20 ppm (10 ppm) ([4]; 1 L of water at 60° C., target 20 ppm of the amide): 78 min
factor slower compared to example 1 (time to 50% of target concentration) ([4]; water at 60° C.): 50
